Source: patent publication US9593122B2, “Substituted pyrazolylpyrazole derivative and use of same as herbicide” (KYOYU AGRI CO., LTD., priority 2013, dated 2017)

Assays:
Format in all cases: in vivo
[1] = tested on: Echinochloa crus-galli; experiment: Paddy herbicidal activity test; conditions: irrigated paddy pot, treated at 3.5 leaf stage of Echinochloa crus-galli, 30 days
How it was run: (§1)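 Flooded paddy-soil pots (3 cm water) were sown with Echinochloa, Monochoria and Scirpus, and rice at the 2.0-leaf stage was transplanted. Diluted wettable powder was dripped in per are at weed 3.5-leaf stage. After 30 days in a greenhouse (~30 °C), growth inhibition versus untreated plants was scored on an 11-level scale.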

[2] = tested on: Monochoria vaginalis; experiment: Paddy herbicidal activity test; conditions: irrigated paddy pot, 30 days
How it was run: as §1

[3] = tested on: Scirpus juncoides; experiment: Paddy herbicidal activity test; conditions: irrigated paddy pot, 30 days
How it was run: as §1

[4] = tested on: Rice plants; experiment: Paddy herbicidal activity test, phytotoxicity to transplanted rice; conditions: rice transplanted at 2.0 leaf stage, 30 days
Description: Rice paddy soil was filled into a 1/10000 are pot followed by the addition of suitable amounts of water and chemical fertilizer, kneading, seeding with Echinochloa crus-galli, Monochoria vaginalis and Scirpus juncoides and maintaining in an irrigated state at a water depth of 3 cm.
Wettable powder of Target Compound (I) shown in Table 1 prepared in compliance with the preparation examples were diluted with a suitable amount of water, rice plants in the 2.0 leaf stage were transplanted during 3.5 leaf stage of Echinochloa crus-galli, and treated by dropping in chemical in the prescribed amount per are using a pipette.
(§2) After treating for 30 days in a glass greenhouse at an average atmospheric temperature of 30° C., the herbicidal efficacy thereof was investigated.
Evaluation of herbicidal efficacy was carried out by comparing growth inhibition rate (%) with an untreated group, while evaluation of phytotoxicity was carried out by comparing growth inhibition rate (%) with the state of a complete eradication group, and were evaluated at 11 levels indicated below.

[5] = tested on: Amaranthus retroflexus; experiment: Farming soil treatment test; conditions: soil surface spray prior to weed growth, 30 days
Description: (§3) Field soil was filled into a 1/6000 are pot followed by seeding with Digitaria ciliaris, Chenopodium album and Amaranthus retroflexus and covering with soil.
(§4) Wettable powder of compounds of formula (I) shown in Table 1 prepared in compliance with the preparation examples were diluted with water to the prescribed amount of chemical and uniformly sprayed onto each soil surface layer using 10 liters of sprayed water per are prior to weed growth following seeding.
as §2
(§5) Evaluation of herbicidal efficacy is carried out in the same manner as the above-mentioned Test Example 1.

[6] = tested on: Chenopodium album; experiment: Farming soil treatment test; conditions: soil surface spray prior to weed growth, 30 days
Description: as §3, §4, §2, §5

[7] = tested on: Digitaria ciliaris; experiment: Farming soil treatment test; conditions: soil surface spray prior to weed growth, 30 days
Description: as §3, §4, §2, §5

[8] = tested on: Amaranthus retroflexus; experiment: Weed foliar treatment test; conditions: foliar spray, 3 weeks
Description: (§6) Soil was filled into a 1/6000 are pot followed by seeding with Digitaria ciliaris, Chenopodium album and Amaranthus retroflexus, covering with soil, and cultivating in a glass greenhouse at an average atmospheric temperature of 25° C.
(§7) Wettable powder of Target Compound (I) shown in Table 1 prepared in compliance with the preparation examples were diluted with water to the prescribed amount of chemical and uniformly sprayed onto the weeds using 15 liters of sprayed water per are when Digitaria ciliaris had grown to the 1.0 to 2.0 leaf stage.
(§8) After treating for 3 weeks in a glass greenhouse at an average atmospheric temperature of 25° C., the herbicidal efficacy thereof was investigated.
(§9) Evaluation of herbicidal efficacy was carried out in the same manner as the above-mentioned Test Example 1.

[9] = tested on: Chenopodium album; experiment: Weed foliar treatment test; conditions: foliar spray, 3 weeks
Description: as §6, §7, §8, §9

[10] = tested on: Digitaria ciliaris; experiment: Weed foliar treatment test; conditions: foliar spray at 1.0 to 2.0 leaf stage of Digitaria ciliaris, 3 weeks
Description: as §6, §7, §8, §9

SMILES	Echinochloa crus-galli herbicidal efficacy (growth inhibition level) ([1]; 1g a.i./10a)	Echinochloa crus-galli herbicidal efficacy (growth inhibition level) ([1]; 5g a.i./10a)	Monochoria vaginalis herbicidal efficacy (growth inhibition level) ([2]; 1g a.i./10a)	Monochoria vaginalis herbicidal efficacy (growth inhibition level) ([2]; 5g a.i./10a)	Scirpus juncoides herbicidal efficacy (growth inhibition level) ([3]; 1g a.i./10a)	Scirpus juncoides herbicidal efficacy (growth inhibition level) ([3]; 5g a.i./10a)	Rice plants phytotoxicity (growth inhibition level) ([4]; 1g a.i./10a)	Rice plants phytotoxicity (growth inhibition level) ([4]; 5g a.i./10a)	Amaranthus retroflexus herbicidal efficacy (growth inhibition level) ([5]; 5g a.i./10a)	Amaranthus retroflexus herbicidal efficacy (growth inhibition level) ([5]; 10g a.i./10a)	Chenopodium album herbicidal efficacy (growth inhibition level) ([6]; 5g a.i./10a)	Chenopodium album herbicidal efficacy (growth inhibition level) ([6]; 10g a.i./10a)	Digitaria ciliaris herbicidal efficacy (growth inhibition level) ([7]; 5g a.i./10a)	Digitaria ciliaris herbicidal efficacy (growth inhibition level) ([7]; 10g a.i./10a)	Amaranthus retroflexus herbicidal efficacy (growth inhibition level) ([8]; 5g a.i./10a)	Amaranthus retroflexus herbicidal efficacy (growth inhibition level) ([8]; 10g a.i./10a)	Chenopodium album herbicidal efficacy (growth inhibition level) ([9]; 5g a.i./10a)	Chenopodium album herbicidal efficacy (growth inhibition level) ([9]; 10g a.i./10a)	Digitaria ciliaris herbicidal efficacy (growth inhibition level) ([10]; 5g a.i./10a)	Digitaria ciliaris herbicidal efficacy (growth inhibition level) ([10]; 10g a.i./10a)
C#CCN(C(=O)C(F)(F)F)c1c(C#N)cnn1-c1nn2c(c1Cl)CCCC2 [Control agent 4.239, reference compound]	3 (3: 30% to less than 40%)	5 (5: 50% to less than 60%)	1 (1: 10% to less than 20%)	2 (2: 20% to less than 30%)	0 (0 (exponent): 0% to less than 10% (growth inhibition rate))	1 (1: 10% to less than 20%)	0 (0 (exponent): 0% to less than 10% (growth inhibition rate))	1 (1: 10% to less than 20%)	3 (3: 30% to less than 40%)	5 (5: 50% to less than 60%)	2 (2: 20% to less than 30%)	3 (3: 30% to less than 40%)	4 (4: 40% to less than 50%)	5 (5: 50% to less than 60%)	4 (4: 40% to less than 50%)	6 (6: 60% to less than 70%)	3 (3: 30% to less than 40%)	4 (4: 40% to less than 50%)	3 (3: 30% to less than 40%)	5 (5: 50% to less than 60%)
C#CCNc1c(C#N)cnn1-c1nn2c(c1Cl)CCCC2 [Control agent 4.85, 4.156, reference compound]	2 (2: 20% to less than 30%)	3 (3: 30% to less than 40%)	1 (1: 10% to less than 20%)	3 (3: 30% to less than 40%)	0 (0 (exponent): 0% to less than 10% (growth inhibition rate))	1 (1: 10% to less than 20%)	2 (2: 20% to less than 30%)	2 (2: 20% to less than 30%)	3 (3: 30% to less than 40%)	6 (6: 60% to less than 70%)	4 (4: 40% to less than 50%)	5 (5: 50% to less than 60%)	3 (3: 30% to less than 40%)	4 (4: 40% to less than 50%)	4 (4: 40% to less than 50%)	6 (6: 60% to less than 70%)	5 (5: 50% to less than 60%)	6 (6: 60% to less than 70%)	3 (3: 30% to less than 40%)	5 (5: 50% to less than 60%)
C=CCN(CC)c1c(C#N)cnn1-c1nn2c(c1Cl)CCCC2 [Control agent 4.75, reference compound]	3 (3: 30% to less than 40%)	4 (4: 40% to less than 50%)	4 (4: 40% to less than 50%)	5 (5: 50% to less than 60%)	2 (2: 20% to less than 30%)	2 (2: 20% to less than 30%)	0 (0 (exponent): 0% to less than 10% (growth inhibition rate))	1 (1: 10% to less than 20%)	6 (6: 60% to less than 70%)	6 (6: 60% to less than 70%)	5 (5: 50% to less than 60%)	6 (6: 60% to less than 70%)	3 (3: 30% to less than 40%)	4 (4: 40% to less than 50%)	5 (5: 50% to less than 60%)	7 (7: 70% to less than 80%)	6 (6: 60% to less than 70%)	7 (7: 70% to less than 80%)	4 (4: 40% to less than 50%)	5 (5: 50% to less than 60%)
C=CCNc1c(C#N)cnn1-c1nn2c(c1Cl)CCCC2 [Control agent 4.59, reference compound]	2 (2: 20% to less than 30%)	5 (5: 50% to less than 60%)	2 (2: 20% to less than 30%)	4 (4: 40% to less than 50%)	2 (2: 20% to less than 30%)	4 (4: 40% to less than 50%)	1 (1: 10% to less than 20%)	2 (2: 20% to less than 30%)	5 (5: 50% to less than 60%)	6 (6: 60% to less than 70%)	5 (5: 50% to less than 60%)	6 (6: 60% to less than 70%)	5 (5: 50% to less than 60%)	6 (6: 60% to less than 70%)	6 (6: 60% to less than 70%)	7 (7: 70% to less than 80%)	6 (6: 60% to less than 70%)	7 (7: 70% to less than 80%)	4 (4: 40% to less than 50%)	6 (6: 60% to less than 70%)
